Holding throughout (assay): NCI tumour cell line growth inhibition, 48 h
Experiment [1] concerns HCT-116.
Experiment [2] concerns OVCAR-4.
The test system of experiment [3] is UACC-257.
The subject of experiment [4] is SNB-75.
In experiment [5] the test system is HCT-15.
Experiment [6] deals with 786-0.
Experiment [7] relates to SK-MEL-2.
The subject of experiment [8] is A549.
The test system of experiment [9] is SK-MEL-28.
Experiment [10] has as its system A498.
The test system of experiment [11] is OVCAR-3.
The test system of experiment [12] is COLO 205.
In experiment [13] the test system is OVCAR-8.
For experiment [14], the system named is UO-31.
Experiment [15] concerns M14.
In experiment [16] the test system is SNB-19.
For experiment [17], the system named is SF-295.
For experiment [18], the system named is UACC-62.

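Results reflect a 48-hour exposure of cells in 96-well plates to compound at five concentrations. GI50 marks 50% less growth.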 The source made the active and inactive calls. No stated cut-off is given here; in the data, active = GI50 up to about 1.1 µM and inactive = higher. A value given as a limit tells only on which side of the number the result lay.

On to `CC(C)(C)C(=C[S+]([O-])/N=C/c1ccccc1)C(C)(C)C` (configuration not stated), for which the GI50 was 30.4 µM (inactive) in experiment [1]; 21.4 µM (inactive) in experiment [2]; 52 µM (inactive) in experiment [3]; 16.4 µM (inactive) in experiment [4]; 23 µM in experiment [5]; > 100 µM (inactive) in experiment [6]. Besides, the GI50 in [7] was 15.9 µM (inactive); in [8], 33.4 µM (inactive); in experiment [9], > 100 µM (inactive); in experiment [10], 36.4 µM (inactive); in experiment [11] it was 34.1 µM (inactive); in experiment [12], 41.1 µM (inactive). Further, the GI50 was 59.4 µM (inactive) in [13], 27.2 µM (inactive) in experiment [14], 40.2 µM (inactive) in experiment [15] and 44.7 µM (inactive) in experiment [16].

Regarding `CN(C)c1ccccc1CC(c1c[nH]c2ccccc12)c1c[nH]c2ccccc12`, the GI50 is 11.2 µM (inactive) in experiment [1]; 9.06 µM (inactive) in [2]; 16.2 µM (inactive) in experiment [3]; 10.3 µM (inactive) in experiment [4]; 12.2 µM in experiment [5]; 12.8 µM (inactive) in experiment [6]. Besides, the GI50 in experiment [7] is 14.8 µM (inactive); in experiment [8], 10.2 µM (inactive); in experiment [17], 11.9 µM (inactive); in experiment [10], 17.1 µM (inactive); in experiment [11] it was 12.8 µM (inactive); in experiment [12] it was 2.82 µM (inactive). Besides, the GI50 in [13] was 11.2 µM (inactive); in [14] it was 10.9 µM (inactive); in [18] it was 14.2 µM (inactive); in experiment [15] it was 11.4 µM (inactive); in experiment [16], 14.4 µM (inactive).

As to `N#CCC(=O)N1CCCOCCC1`, the GI50 in experiment [1] was > 100 µM (inactive); in [2], 38.6 µM (inactive); in experiment [3] it was > 100 µM (inactive); in experiment [5], 17.9 µM; in experiment [6], > 100 µM (inactive); in [7], > 100 µM (inactive). In addition, the GI50 in [8] was > 100 µM (inactive); in experiment [9], > 100 µM (inactive); in experiment [17] it was > 100 µM (inactive); in experiment [10], > 100 µM (inactive); in experiment [12], 21.8 µM (inactive); in experiment [14], > 100 µM (inactive). The GI50 in [18], in experiment [15] and in experiment [16] was > 100 µM (inactive) throughout.

As to `O=S(=O)(CC1=NC2C=CC=CC2N=C1)NCc1ccccc1` (configuration not stated), the GI50 in experiment [1] was > 100 µM (inactive); in experiment [2], 55.2 µM (inactive); in experiment [4], > 100 µM (inactive); in experiment [5] it was 81.7 µM; in [6], > 100 µM (inactive); in experiment [7], > 100 µM (inactive). The GI50 was > 100 µM (inactive) in [8]; > 100 µM (inactive) in [9]; > 100 µM (inactive) in [17]; > 100 µM (inactive) in [10]; 83.2 µM (inactive) in [11]; > 100 µM (inactive) in experiment [12]. Also, the GI50 in experiment [13], in experiment [18], in experiment [15] and in experiment [16] was > 100 µM (inactive) throughout.

As for `N=C(N)NS(=O)(=O)c1ccc(Nc2c3ccccc3nc3c(C(=O)Nc4ccc(S(N)(=O)=O)cc4)ccc(Cl)c23)cc1`, the GI50 in experiment [1] was > 100 µM (inactive); in experiment [2] it was > 100 µM (inactive); in experiment [3], > 100 µM (inactive); in [4], > 100 µM (inactive); in experiment [5], greater than 100 µM; in experiment [6], > 100 µM (inactive). For the same molecule, the GI50 in [8], in [9], in experiment [17], in [10], in [11] and in experiment [12] was > 100 µM (inactive) throughout. Moreover, the GI50 is 58.2 µM (inactive) in experiment [13]; > 100 µM (inactive) in experiment [14]; > 100 µM (inactive) in experiment [18]; > 100 µM (inactive) in [15]; > 100 µM (inactive) in [16].

With `C=C1C(=O)OC2C1CC[C@H](C)C13OC(=O)CC1[C@@]23C` (some centres not stated), the GI50 in experiment [1], in [3], in experiment [4], in [6], in experiment [7] and in experiment [8] was > 100 µM (inactive) throughout. Besides, the GI50 in [9], in experiment [17], in [10], in [11], in experiment [12] and in experiment [13] was > 100 µM (inactive) in each case. The GI50 in experiment [14], in experiment [18] and in experiment [16] was > 100 µM (inactive) throughout.

On to `C#Cc1c(C)c(/C=C/C(C)=C/C(=O)OC)n(C)c1C`, for which the GI50 in [1] was 65.8 µM (inactive); in experiment [2], 82.2 µM (inactive); in experiment [3] it was > 100 µM (inactive); in experiment [5], 95.3 µM; in experiment [6], > 100 µM (inactive); in experiment [8], > 100 µM (inactive). For the same molecule, the GI50 in experiment [17] was > 100 µM (inactive); in experiment [10], > 100 µM (inactive); in experiment [11], > 100 µM (inactive); in [12], > 100 µM (inactive); in experiment [13], 71.9 µM (inactive); in experiment [14], > 100 µM (inactive). Moreover, the GI50 is 94.6 µM (inactive) in experiment [18], > 100 µM (inactive) in experiment [15] and > 100 µM (inactive) in experiment [16].

Take `N=C1CSC2=NC3=C(CCC/C3=C\c3ccccc3)C(c3ccccc3)N12` (configuration not stated): the GI50 in experiment [1] is 3.54 µM (inactive); in [3], 11.5 µM (inactive); in experiment [4] it was 10.6 µM (inactive); in experiment [6], 5.65 µM (inactive); in experiment [7], 2.27 µM (inactive); in experiment [8], 4.07 µM (inactive). The GI50 was 7.5 µM (inactive) in experiment [9]; 5.85 µM (inactive) in experiment [17]; 13.9 µM (inactive) in experiment [10]; 2.72 µM (inactive) in experiment [11]; 8.89 µM (inactive) in [12]; 5.92 µM (inactive) in experiment [13]. The GI50 was 11.2 µM (inactive) in [14], 9.23 µM (inactive) in [18], 3.3 µM (inactive) in experiment [15] and 5.94 µM (inactive) in experiment [16].

`CCOC(=O)c1c(-c2[nH]c(C(=O)OCc3ccccc3)c(C)c2C(=O)OCC)[nH]c(C(=O)OCc2ccccc2)c1C`: the GI50 is > 100 µM (inactive) in [1]; 29 µM (inactive) in experiment [4]; greater than 100 µM in experiment [5]; 92 µM (inactive) in experiment [6]; > 100 µM (inactive) in experiment [7]; > 100 µM (inactive) in [8]. The GI50 in experiment [9], in experiment [17], in experiment [10], in [11], in [12] and in [13] was > 100 µM (inactive) throughout. In addition, the GI50 in [14], in experiment [18] and in experiment [15] was > 100 µM (inactive) each time.

`COc1cc(C2C(Cl)C(=O)N2NC(=O)c2ccc(NC(C)=O)cc2)ccc1O` (configuration not stated): the GI50 in experiment [1] is > 100 µM (inactive); in experiment [2] it was > 100 µM (inactive); in [3], > 100 µM (inactive); in experiment [5], greater than 100 µM; in [6], > 100 µM (inactive); in experiment [7] it was > 100 µM (inactive). The GI50 in experiment [8], in experiment [9], in [17], in experiment [10], in experiment [11] and in [12] was > 100 µM (inactive) throughout. Also, the GI50 in experiment [13], in experiment [14], in experiment [18], in [15] and in experiment [16] was > 100 µM (inactive) each time.

In the case of `CC(=O)C1(O)CC2(c3ccccc3)C(=O)C1(c1ccccc1)C(c1ccccc1)=C2c1ccccc1` (configuration not stated), the GI50 is 30.9 µM (inactive) in [1]; 13.5 µM (inactive) in [2]; 35.6 µM (inactive) in [3]; 38.7 µM (inactive) in [4]; greater than 100 µM in experiment [5]; > 100 µM (inactive) in [6]. Also, the GI50 in experiment [8] was 54.6 µM (inactive); in [17], 33.4 µM (inactive); in experiment [10], > 100 µM (inactive); in [11], > 100 µM (inactive); in [12], > 100 µM (inactive); in [13], > 100 µM (inactive). Further, the GI50 in experiment [14] is 58.5 µM (inactive); in experiment [18], 79.4 µM (inactive); in [15], > 100 µM (inactive); in [16], > 100 µM (inactive).

For the molecule `Cc1ccc(NC(=O)C(=O)CC(=O)c2ccccc2)cc1C`, the GI50 in experiment [1] was 60.3 µM (inactive); in experiment [2], > 100 µM (inactive); in [3] it was > 100 µM (inactive); in experiment [4] it was > 100 µM (inactive); in experiment [5], 37.2 µM; in [6] it was > 100 µM (inactive). Further, the GI50 was > 100 µM (inactive) in experiment [8]; > 100 µM (inactive) in [9]; > 100 µM (inactive) in experiment [17]; > 100 µM (inactive) in experiment [10]; 33.6 µM (inactive) in experiment [11]; > 100 µM (inactive) in experiment [12]. Moreover, the GI50 was > 100 µM (inactive) in [13]; > 100 µM (inactive) in experiment [14]; 70.6 µM (inactive) in [18]; > 100 µM (inactive) in experiment [15]; > 100 µM (inactive) in experiment [16].

The record behind these values is ChEMBL document CHEMBL1201862, “PubChem BioAssay data set” (2004).
